From PMC3856564 (Angewandte Chemie (International ed. in English), 2013) come the findings set out here.

The target in test [1] is topoisomerase (DNA) II alpha (TOP2A) (Homo sapiens, UniProt P11388). The test is described as follows: surface plasmon resonance. The class given is binding.
Test [2] deals with PARP1 (Homo sapiens, UniProt P09874). The test is described as follows: surface plasmon resonance. In kind it is binding. A general note: Surface plasmon resonance follows binding to a sensor surface in real time, without labels.
PARP1, sequence (P09874 2-1014): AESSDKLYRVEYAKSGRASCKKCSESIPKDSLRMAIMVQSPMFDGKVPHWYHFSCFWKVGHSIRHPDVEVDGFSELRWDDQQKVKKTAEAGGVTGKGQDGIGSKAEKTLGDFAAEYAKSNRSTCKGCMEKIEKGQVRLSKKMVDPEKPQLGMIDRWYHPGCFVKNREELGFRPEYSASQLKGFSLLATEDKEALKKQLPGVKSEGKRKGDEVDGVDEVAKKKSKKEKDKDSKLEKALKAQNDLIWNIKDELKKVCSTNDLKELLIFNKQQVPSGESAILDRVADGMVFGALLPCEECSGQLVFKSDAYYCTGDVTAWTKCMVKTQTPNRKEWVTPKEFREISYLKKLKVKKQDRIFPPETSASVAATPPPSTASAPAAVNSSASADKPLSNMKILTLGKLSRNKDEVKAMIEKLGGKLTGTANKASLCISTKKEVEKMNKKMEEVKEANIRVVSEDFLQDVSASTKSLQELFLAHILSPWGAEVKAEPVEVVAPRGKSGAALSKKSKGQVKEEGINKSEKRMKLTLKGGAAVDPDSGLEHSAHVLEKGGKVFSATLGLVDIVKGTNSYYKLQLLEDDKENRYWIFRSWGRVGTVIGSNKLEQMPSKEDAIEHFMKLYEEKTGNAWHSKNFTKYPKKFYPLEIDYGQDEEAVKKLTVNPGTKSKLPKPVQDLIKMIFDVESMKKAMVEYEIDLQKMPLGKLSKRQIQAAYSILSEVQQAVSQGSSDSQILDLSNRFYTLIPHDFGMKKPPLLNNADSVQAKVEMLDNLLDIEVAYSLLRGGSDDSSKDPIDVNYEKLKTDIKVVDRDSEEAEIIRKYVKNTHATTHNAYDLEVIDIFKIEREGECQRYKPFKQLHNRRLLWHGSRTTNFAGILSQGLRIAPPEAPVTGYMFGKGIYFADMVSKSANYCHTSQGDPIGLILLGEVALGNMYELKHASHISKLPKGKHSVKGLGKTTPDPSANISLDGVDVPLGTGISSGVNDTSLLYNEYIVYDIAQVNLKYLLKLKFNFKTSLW

topoisomerase (DNA) II alpha (TOP2A), sequence (P11388 whole entry): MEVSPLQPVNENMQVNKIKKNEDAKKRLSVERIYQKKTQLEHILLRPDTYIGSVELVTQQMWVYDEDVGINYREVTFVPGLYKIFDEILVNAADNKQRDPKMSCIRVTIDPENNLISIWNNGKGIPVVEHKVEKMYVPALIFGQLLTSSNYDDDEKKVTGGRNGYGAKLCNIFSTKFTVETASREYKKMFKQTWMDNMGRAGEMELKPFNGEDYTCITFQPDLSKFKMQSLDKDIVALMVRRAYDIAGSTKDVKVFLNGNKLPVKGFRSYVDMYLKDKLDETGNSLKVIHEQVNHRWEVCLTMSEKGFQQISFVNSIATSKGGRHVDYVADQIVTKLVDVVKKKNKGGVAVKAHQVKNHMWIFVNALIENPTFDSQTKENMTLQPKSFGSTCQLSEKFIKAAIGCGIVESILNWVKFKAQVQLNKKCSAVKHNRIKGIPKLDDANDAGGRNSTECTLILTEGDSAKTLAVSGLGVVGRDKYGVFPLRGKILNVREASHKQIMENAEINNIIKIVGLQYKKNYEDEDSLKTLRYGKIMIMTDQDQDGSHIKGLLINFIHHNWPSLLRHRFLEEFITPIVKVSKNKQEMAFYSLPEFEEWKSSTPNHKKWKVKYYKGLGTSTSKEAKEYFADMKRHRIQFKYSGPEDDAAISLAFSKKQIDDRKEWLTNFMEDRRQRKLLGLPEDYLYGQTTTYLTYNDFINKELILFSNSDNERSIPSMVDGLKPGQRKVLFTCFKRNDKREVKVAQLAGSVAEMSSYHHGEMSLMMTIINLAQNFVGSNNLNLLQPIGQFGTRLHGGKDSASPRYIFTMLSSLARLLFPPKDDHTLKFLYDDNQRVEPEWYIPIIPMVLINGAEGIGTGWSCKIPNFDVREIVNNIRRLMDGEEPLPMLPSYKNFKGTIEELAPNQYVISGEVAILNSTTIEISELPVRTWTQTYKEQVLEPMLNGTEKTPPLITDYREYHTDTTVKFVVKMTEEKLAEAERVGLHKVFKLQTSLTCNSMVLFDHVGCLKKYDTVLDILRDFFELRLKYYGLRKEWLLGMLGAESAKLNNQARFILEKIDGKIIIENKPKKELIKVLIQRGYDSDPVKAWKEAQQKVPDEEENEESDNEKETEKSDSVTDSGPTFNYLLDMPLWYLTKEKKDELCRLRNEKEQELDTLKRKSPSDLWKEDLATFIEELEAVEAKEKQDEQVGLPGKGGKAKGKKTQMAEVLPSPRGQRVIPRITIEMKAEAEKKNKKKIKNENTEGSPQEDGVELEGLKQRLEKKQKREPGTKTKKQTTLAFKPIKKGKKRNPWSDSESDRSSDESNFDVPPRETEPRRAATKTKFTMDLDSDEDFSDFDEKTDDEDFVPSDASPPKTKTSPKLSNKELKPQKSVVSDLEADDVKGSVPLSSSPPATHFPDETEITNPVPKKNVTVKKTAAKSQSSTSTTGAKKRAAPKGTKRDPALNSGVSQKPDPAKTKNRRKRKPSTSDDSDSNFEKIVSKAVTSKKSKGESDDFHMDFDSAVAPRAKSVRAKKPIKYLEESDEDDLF

The Kd is the free concentration of one partner at which half of the binding sites on the other are occupied at equilibrium, for simple one-to-one binding. As to Olaparib-TCO, the Kd in test [1] was roughly 3.7 nM; in test [2] it was 22 nM.
